Assay results published in patent US9884065B2, “Inhibiting activity of senescent cells using a glucocorticoid” (Buck Institute for Research on Aging, priority 2011, dated 2018).

What was measured:
[1] = test system: K-Ras induced lung tumors; test: K-Ras mediated lung tumorigenesis in INK-ATTAC:K-RasLA1 mice; type: in vivo, mouse; parameters: dose or concentration left out as unconfirmed; conditions: INK-ATTAC3:K-RasLA1 and INK-ATTAC5:K-RasLA1 mice, from three weeks of age; 21 days after treatment
Excerpt: Briefly, INK-ATTAC (p16^Ink4a apoptosis through targeted activation of caspase) transgenic mice have an FK506-binding protein (FKBP)-caspase 8 (Casp8) fusion polypeptide under the control of the p16^Ink4a promoter (see FIG. 10 providing a vector sequence for the transgene and FIG. 11 providing sequences for components of the transgene including the promoter sequence). In the presence of AP20187, a synthetic drug that induces dimerization of a membrane bound myristoylated FKBP-Casp8 fusion protein, senescent cells specifically expressing the FKBP-Casp8 fusion protein via the p16^Ink4a promoter undergo programmed cell death (apoptosis) (see, e.g., Baker, Nature, supra, FIG. 1 therein). Two founder lines (INK-ATTAC^3 and INK-ATTAC^5) were each bred with the K-rasLA1 tumor model. […]
Two INK-ATTAC:K-RasLA1 were produced (one for INK-ATTAC line 3 and one for line 5). […] Twenty one days after treatment, the mice were sacrificed and tumor multiplicity in lungs was measured. […] In addition, metastasis and overall survival will be monitored after tumor induction in the presence or absence of p16-positive cells.

IL-6 = test: Initial drug screen (Prestwick Chemical Library), IL-6 ELISA of medium; type: cell-based, human; conditions: 2.5 μM, 48 hours, HCA2 fibroblasts, 0.2% serum
Method: The initial drug screen was performed in a 96-well format using automated liquid handling with a Biomek FX (Beckman Coulter, CA). Senescent cells were plated 24 hours after X-irradiation at 7,500 cells per well in 96-well plates. Six days after plating the senescent cells, the pre-senescent cells were plated at 7,500 cells per well in 96-well plates. Twenty-four hours after pre-senescent plating, both pre-senescent and senescent cells were washed and incubated in low (0.2%) serum for 48 hours to arrest cell proliferation of the pre-senescent cells. […] Forty-eight hours after compound addition, the medium in each well was removed and frozen for assay by ELISA to quantitate the levels of IL-6. The cells, which remained in the wells after the medium was removed, were lysed and ATP levels were measured (ATPlite 1-step assay, Perkin Elmer, MA) to exclude compounds that lowered IL-6 through toxicity (cell death). Experimental wells in each plate were normalized to plate mean or same-plate DMSO controls for the ELISA and ATP assays, respectively.
To identify small molecules that may be potential SASP modulators, a screening strategy that entailed administering compounds to parallel 96-well plates containing human fibroblasts (strain HCA2) that were either quiescent or senescent was developed. […] After 48 hours, the medium from each well was removed, and the cells were lysed. […] Cell lysates were assayed for ATP as a surrogate for cell number.

HCA2 human fibroblasts = conditions: 2.5 μM, 48 hours
Method: The initial drug screen was performed in a 96-well format using automated liquid handling with a Biomek FX (Beckman Coulter, CA). Senescent cells were plated 24 hours after X-irradiation at 7,500 cells per well in 96-well plates. Six days after plating the senescent cells, the pre-senescent cells were plated at 7,500 cells per well in 96-well plates. Twenty-four hours after pre-senescent plating, both pre-senescent and senescent cells were washed and incubated in low (0.2%) serum for 48 hours to arrest cell proliferation of the pre-senescent cells. Drugs from the Prestwick Chemical Library, which contains 1120 bio-available compounds in DMSO, were given to the cells at 2.5 μM in media containing 0.2% serum. Forty-eight hours after compound addition, the medium in each well was removed and frozen for assay by ELISA to quantitate the levels of IL-6. The cells, which remained in the wells after the medium was removed, were lysed and ATP levels were measured (ATPlite 1-step assay, Perkin Elmer, MA) to exclude compounds that lowered IL-6 through toxicity (cell death). Experimental wells in each plate were normalized to plate mean or same-plate DMSO controls for the ELISA and ATP assays, respectively.
To identify small molecules that may be potential SASP modulators, a screening strategy that entailed administering compounds to parallel 96-well plates containing human fibroblasts (strain HCA2) that were either quiescent or senescent was developed. The compounds tested comprised the Prestwick Chemical Library, a collection of approximately 1,120 Federal Drug Administration-approved drugs. The compounds were added to duplicate wells at a single concentration (2.5 μM). After 48 hours, the medium from each well was removed, and the cells were lysed. […] Cell lysates were assayed for ATP as a surrogate for cell number.

SASP = test: Multiplex ELISA of conditioned media from irradiated IMR90 fibroblasts (50 cytokines and growth factors); type: cell-based, human; conditions: 10 μM apigenin immediately after irradiation, analyzed 6 days later; less than 2 fold not considered significant
Method: To determine whether or to what extent apigenin suppressed the entire SASP, multiplex ELISA was used to interrogate the relative secretion of 50 cytokines and growth factors. IMR90 fibroblasts were treated with 10 μM apigenin or DMSO immediately after irradiation and analyzed 6 days later. Cells were washed and incubated in serum-free media without apigenin to generate conditioned media. Conditioned media from […], apigenin- or DMSO-treated irradiated IMR90 cells and control (mock-irradiated, DMSO-treated) cells were analyzed by ELISA for various SASP factors (FIG. 19).

Row | SMILES | tumor multiplicity in lungs (tumor numbers) [1] | IL-6 secretion (ELISA) (IL-6) | ATP levels (HCA2 human fibroblasts) | secretion of SASP factors (fold difference over control) (SASP)
1 | CC[C@H](C(=O)N1CCCC[C@H]1C(=O)O[C@H](CCc1ccc(OC)c(OC)c1)c1cccc(OCC(=O)NCC(CNC(=O)COc2cccc([C@@H](CCc3ccc(OC)c(OC)c3)OC(=O)[C@@H]3CCCCN3C(=O)[C@@H](CC)c3cc(OC)c(OC)c(OC)c3)c2)CN(C)C)c1)c1cc(OC)c(OC)c(OC)c1 [AP20187] | significantly reduced |  |  | 
2 | O=c1cc(-c2ccc(O)cc2)oc2cc(O)cc(O)c12 [apigenin, 4′,5,7-trihydroxyflavone] |  | capable of suppressing IL-6 secretion | without altering ATP levels | suppressed the secretion of several pro-inflammatory cytokines and chemokines, including, for example, TGFA, MCP3, LIF, IFNβ, IL-6, GROA, and IL-2
